# Columns and labels:
# 3T3-L1 cells [1] = experiment: Lipid droplet formation in differentiating 3T3-L1 cells (Oil red O staining); assay type: cell-based, mouse; conditions: high concentration (5 µM)
# Protocol: The cells were planted in a well plate and cultured for 48 h after the cells were 100% confluent. Mix inhibitors compounds 39 and 41 with solution I (10 µg/mL insulin in DMEM/F: 12 medium, 0.5 mM 3-isobutyl-1-methylxanthine and […]) to different concentrations, Then added to different wells and incubated for 48 h, then the inhibitor was mixed with solution II (5 µg/mL insulin in DMEM/F: 12 medium), then added to the wells of the same concentration and incubated for 48 h. Then, the medium in the well was replaced with DMEM/F:12 medium with different concentrations of inhibitors, and the culture was continued for 48 h.
# The lipid droplets of 3T3-L1 cells were stained with Oil Red O stain kit (Beijing solebo Technology Co., Ltd., Beijing, China) after cultured for 48 h. In short, 3T3-L1 cells were washed with PBS 2 times and fixed with ORO fixative for 20–30 min, and then washed again with deionised water for 3 times. Then, 3T3-L1 cells were washed with 60% isopropanol for 5 min, immersed in oil red O solution for 10–20 min, and washed with deionised water for 3–5 times. Mayer's haematoxylin staining solution was added, the nucleus was stained for 1–2 min, then washed for 3–5 times, and Oro buffer solution was added for 1 min. Finally, distilled water was added to cover the cells. The stained lipid droplets were observed under inverted microscope (Lecai DMI8).
# hCES2A = target: T1, hCES2A (Homo sapiens, UniProt O00748); experiment: Inhibition of hCES2A-mediated FD hydrolysis; assay type: biochemical; conditions: FD substrate, mean ± SD (n = 3); read-out: IC50 (µM) hCES2A
# T1 sequence (O00748 27-559): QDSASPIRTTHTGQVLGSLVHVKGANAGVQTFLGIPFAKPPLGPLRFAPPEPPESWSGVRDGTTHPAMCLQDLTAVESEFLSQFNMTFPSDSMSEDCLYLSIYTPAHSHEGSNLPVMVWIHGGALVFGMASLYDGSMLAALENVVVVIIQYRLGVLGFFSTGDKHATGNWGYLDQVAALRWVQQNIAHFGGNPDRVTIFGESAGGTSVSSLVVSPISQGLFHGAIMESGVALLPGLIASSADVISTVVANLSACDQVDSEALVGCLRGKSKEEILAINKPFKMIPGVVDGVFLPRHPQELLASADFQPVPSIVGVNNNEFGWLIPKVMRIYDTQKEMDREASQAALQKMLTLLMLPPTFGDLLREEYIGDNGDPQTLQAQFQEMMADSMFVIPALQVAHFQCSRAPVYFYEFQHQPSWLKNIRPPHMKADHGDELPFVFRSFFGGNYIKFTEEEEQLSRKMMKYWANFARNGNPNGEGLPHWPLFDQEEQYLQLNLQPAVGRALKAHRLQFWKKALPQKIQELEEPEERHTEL
# Source text: […] (FD) was used as the hCES2A specific probe substrate to assay the inhibitory effect of natural triterpenoids on hCES2A. The entire detailed operation process refers to the previously reported method, and finally the FD mixture was put into the multi-mode microplate reader for analysis and detection.
# 3T3-L1 cells [2] = experiment: Cytotoxicity assay (CCK-8) in 3T3-L1 cells; assay type: cell-based; conditions: CCK-8, 48 h, 0–100 µM
# Protocol: The effect of compounds 39 and 41 on cell viability of the 3T3-L1cells was measured using Cell Counting Kit-8 (Dalian Meilun Biotechnology Co., Ltd., Dalian, China). Briefly, 3T3-L1 cells (5 × 10^4/mL, 100 µL) were seeded in the 96-well plate, After 24 h incubation, then the cells were treated with different concentrations of compounds 39 and 41 (0–100 µM) for another 48 h. Then, CCK-8 (10%, v/v, 100 µL) was added to each well and incubated at 37 °C for additional 2 h. The absorbance was determined by microplate reader at 450 nm. The percentage of cell viability was calculated towards control. Each condition included replicate wells with at least four independent repeats.
SMILES,lipid droplet formation (3T3-L1 cells [1]),IC50 (hCES2A),concentration below which almost non-toxic to 3T3-L1 (cell viability) (3T3-L1 cells [2])
CC(=O)OC1CCC2(C)C(CCC3(C)C2CC=C2C4C(C)C(C)CCC4(C(=O)O)CCC23C)C1(C)C (stereo not drawn) [Compound 41],almost no lipid droplets were formed,5.02 ± 0.88 µM,< 10 µM
CC1(C)CCC2(C(=O)O)CCC3(C)C(=CCC4C5(C)C=C(O)C(=O)C(C)(C)C5CCC43C)C2C1 (stereo not drawn) [Compound 39],almost no lipid droplets were formed,6.02 ± 0.75 µM,below 20 µM

# Source: publication PMC8812735, “Discovery of triterpenoids as potent dual inhibitors of pancreatic lipase and human carboxylesterase 1” (Journal of Enzyme Inhibition and Medicinal Chemistry, 2022)
